Test results reported in US11896612B2, “Resurrection of antibiotics that MRSA resists by silver-doped bioactive glass-ceramic particles” (Board of Trustees of Michigan State University, priority 2019, dated 2024).
“Also recorded” adds a separate entry of the source.

What was measured:
[1] = tested on: eukaryotic cells; conditions: cited from earlier work
[2] = tested on: bacteria; conditions: cited from earlier work
[3] = tested on: methicillin-resistant S. aureus USA300 JE2; assay: Antibacterial test: CFU enumeration of MRSA suspended in PBS (growth-arrested); assay type: cell-based, Staphylococcus aureus; conditions: 24 hours; for bacterial inhibition by antibiotic alone: PBS, static, oxacillin 0.1-50 μg/ml, vancomycin up to 10 mg/ml, fosfomycin 0.05-50 μg/ml, gentamicin 0.01 μg/ml
Procedure: All experiments are conducted using the laboratory derived methicillin-resistant S. aureus USA300 JE2. Cells are streaked for isolation on tryptic soy agar (TSA) and cultured at 37° C. overnight. An isolated colony is then grown in broth (TSB), shaking at 225 rpm at 37° C. overnight. Next, 1 mL solution of MRSA in PBS, normalized to an optical density (OD600 nm) equal to 1 (equivalent to 10^8 CFU/mL) is prepared. The bacterial suspension is mixed in a 1:1 volume ratio, with each of the solutions containing twofold the final concentration of Ag-BG, antibiotic, or the indicated Ag-BG/antibiotic combination. An untreated control is also prepared by mixing the bacterial suspension in a 1:1 volume ratio with PBS.
Bacterial suspensions are placed in a 37° C. incubator for the indicated time. At each time point, an aliquot of the bacterial suspension is removed to enumerate colony forming units (CFU) of the bacteria via serial dilution and plating on TSA. All plates are incubated at 37° C. Quantification of CFU are performed in biological and technical triplicate. Measurements are repeated three times. Standard deviation is indicated as error bars. Statistical analysis is performed using the paired Student's t-test, two tailed, n=9 and p<0.05.
The bactericidal properties of Ag-BG alone, vancomycin alone (vanc) and the combination of Ag-BG with vancomycin (Ag-BG/vanc) were studied against laboratory-derived methicillin-resistant S. aureus (MRSA) USA300 JE241. The bacteria cells were prepared by isolation of a single colony, followed by its inoculation in tryptic soy broth overnight at 37° C. A bacterial suspension was prepared by adjusting the concentration of the overnight culture to 108 colony forming units (CFU)/mL in Phosphate Buffered Saline (PBS). Then, the bacterial suspension was mixed 1:1 with the corresponding treatment (Ag-BG, Ag-BG/vanc or vanc) to a final volume of 1 mL. A negative control was prepared by suspending bacteria 1:1 in PBS. After 24 h of incubation at 37° C., […] of suspension were drawn from the mixture for CFU enumeration in tryptic soy agar plates. The effect of the treatments was evaluated based on the decrease of CFU compared to the negative control. Quantification of CFU was performed in biological and technical triplicates.
Vancomycin (molecular formula: C66H75C12N9O24·HCl, Vancomycin hydrochloride) is a cell-wall targeting antibiotic with no effect against MRSA under growth-arrested conditions and was selected for this example. Here, the concentration dependency of this synergism was evaluated by exposing MRSA to different combinations of Ag-BG/vanc. Two experimental set-ups were considered. Initially, 0.5 mg/mL of vancomycin were delivered together with 1.25, 2.5, 3.75 or 6.5 mg/mL of Ag-BG and then, 2.5 mg/mL of Ag-BG were combined with 0.1, 0.3, 0.5 and 1 mg/mL of vancomycin. The Ag-BG powder was sterilized using UV radiation before exposure to bacteria. The antibiotic treatment was prepared by dilution of vancomycin powder at different concentrations in PBS, and the Ag-BG/vanc samples were prepared by mixing Ag-BG powder with the corresponding vancomycin solution.

[4] = tested on: MRSA; assay: TEM and SEM imaging of MRSA after exposure; assay type: cell-based, Staphylococcus aureus; conditions: 24 hours exposure in PBS
Procedure: After 24 hours of incubation, solutions are prepared for studies with TEM to observe the morphology and ultrastructural properties of bacteria in each of the tested groups. The cultures are centrifuged and fixed using Karnovsky fixative, consisting of 2.5% glutaraldehyde, 2.5% paraformaldehyde and 0.1 M cacodylate buffer dissolved in deionized water. In the cases of the tested groups with Ag-BG particles, the particles are removed by allowing them to settle to the bottom of the Eppendorf microcentrifuge tubes before centrifugation and fixation. Bacteria pellets are suspended and incubated in fixative for 2 hours at room temperature. Next, the suspensions are centrifuged to remove the fixative. To capture bacteria in a solid matrix, a drop of a 2% agarose deionized water solution is added to the cell pellet. After the agarose solidifies, the matrix is washed three times at room temperature for 15 minutes with 0.1 M cacodylate buffer. A solution of 2% osmium tetroxide is used to stain the bacterial cells for 1 hour at the post-fixation stage. Subsequently, the cubes are washed with deionized water. Dehydration is done by a series of different concentrations of acetone: 25%, 50%, 75%, and 100%. Next, Spurr resin is infiltrated in a series of dilutions in acetone (acetone: resin): 3:1, 1:1, and 100% resin for two days. The cells are embedded in 100% Spurr resin at 60° C. for 24 hours and then, thin sections of less than 100 nm thickness are obtained by ultramicrotome (RMC MYX ultramicrotome) with glass knives and are mounted in bare copper grids. Positive staining is done with 2% uranyl acetate for 7 minutes and lead citrate for 3 minutes. Finally, samples are observed at 100 kV in a JEOL 100CX microscope.
Bacterial morphology upon exposure to Ag-BG particles is studied using SEM. Cells are prepared after 12 hours of exposure. In this case, the Ag-BG particles remain in the solution with the cells and are fixed using 2.5% glutaraldehyde, 2.5% paraformaldehyde, and 0.1 M cacodylate buffer dissolved in deionized water. […]

[5] = tested on: MRSA; assay: Vancomycin susceptibility of MRSA cultured in tryptic soy broth (TSB); assay type: cell-based, Staphylococcus aureus
Procedure: Oxacillin and fosfomycin are used at 0.1 and 0.05 μg/ml, respectively—a concentration that is considerably lower than their MIC. Vancomycin (molecular formula: C66H75C12N9O24·HCl, Vancomycin hydrochloride) is selected due to a mechanism of action that is dependent on cell growth. MRSA is susceptible to 0.47 μg/ml of vancomycin when cultured in tryptic soy broth (TSB). However, exposure to vancomycin in growth arrested conditions, such as suspension in phosphate buffered saline (PBS), enhances tolerance to the antibiotic. Cells are exposed to 0.5 mg/ml vancomycin in PBS. […] All antibiotics are purchased from Sigma Aldrich in powder USP Reference Standard and are used without further purification.

[6] = tested on: human mesenchymal stem cells (hBMSC); assay: Proliferation of human mesenchymal stem cells, CCK-8; assay type: cell-based; conditions: 0.2 mg/mL Ag2O in transwell, 4 days exposure
Procedure: Primary bone-marrow derived human mesenchymal stem cells (hBMSC) isolated from healthy donor were obtained from the Institute of Regenerative Medicine, Texas A&M University. Frozen vials of cells were thawed and cultured a in α-MEM supplemented with 16% fetal bovine serum, 1% Antibiotic-Antimycotic and 1% L-glutamine (hereafter, growth medium) in a humidified 37° C./5% CO2 incubator. Cells were expanded until 90% confluence to a final passage. Cells were enzymatically lifted, centrifuged for 5 min and re-suspended fresh media. Cells were seeded at a density of 15×10^3 cells/mL on each well of 24-well plate by pipetting 0.5 mL/well. After 24 h, Ag-BGN (5, 10 and 20 mg/mL) were transferred to porous transwells and inside the wells to treat cell for 2, 4, 6, 8 and 10 days. The results were compared to a positive control consisting on cell immersed only in media and a negative control consisting on cells treated with Ag2O exposed using a porous transwell. […]
After each time point, cell viability and proliferation were assessed introducing a CCK-8 kit solution in the wells after removing the transwells. After 2 h, […] were drawn and placed in a 96 well plate and its optical density was measured at 470 nm wavelength. […]

Molecule | bacterial inhibition by antibiotic alone [3] | bacterial ultrastructure by TEM [4] | also measured
silver ions |  |  | lowest concentration that induces cytotoxicity [1]: 1.6 ppm; minimum bactericidal concentration [2]: 0.1 ppm
Gentamicin | does not inhibit significantly |  | concentration that significantly inhibits MRSA ([3]; static conditions): higher than 0.1 μg/ml
Cc1onc(-c2ccccc2)c1C(=O)N[C@@H]1C(=O)N2[C@@H]1SC(C)(C)[C@@H]2C(=O)O [oxacillin, Oxacillin] | no demonstrable bacterial inhibition | intact cells | 
CN[C@H](CC(C)C)C(=O)N[C@H]1C(=O)N[C@@H](CC(N)=O)C(=O)N[C@H]2C(=O)N[C@H]3C(=O)N[C@H](C(=O)N[C@H](C(=O)O)c4cc(O)cc(O)c4-c4cc3ccc4O)[C@H](O)c3ccc(c(Cl)c3)Oc3cc2cc(c3O[C@@H]2O[C@H](CO)[C@@H](O)[C@H](O)[C@H]2O[C@H]2C[C@](C)(N)[C@H](O)[C@H](C)O2)Oc2ccc(cc2Cl)[C@H]1O [vancomycin, Vancomycin] | not lethal; also recorded: no reduction of CFU/mL | intact cells | concentration to which MRSA is susceptible [5]: 0.47 µg/mL
C[C@@H]1O[C@@H]1P(=O)(O)O [fosfomycin, Fosfomycin] | resistant | intact cells | 
[Ag+].[Ag+].[O-2] [Ag2O] |  |  | cell viability [6]: not viable
